# Measurements: ChEMBL document CHEMBL3352711, “Discovery and Characterization of ML398, a Potent and Selective Antagonist of the D4 Receptor with in Vivo Activity” (ACS Med Chem Lett, 2014)
# The source made the active and inactive calls. The calls are words filed in the database; no cut-off is given here.
# Experiments:
# [1] = target: T1, D(4) dopamine receptor (Homo sapiens) (UniProt P21917); assay: Inhibition of human dopamine D4 receptor at 10 uM
# T1 sequence (whole entry): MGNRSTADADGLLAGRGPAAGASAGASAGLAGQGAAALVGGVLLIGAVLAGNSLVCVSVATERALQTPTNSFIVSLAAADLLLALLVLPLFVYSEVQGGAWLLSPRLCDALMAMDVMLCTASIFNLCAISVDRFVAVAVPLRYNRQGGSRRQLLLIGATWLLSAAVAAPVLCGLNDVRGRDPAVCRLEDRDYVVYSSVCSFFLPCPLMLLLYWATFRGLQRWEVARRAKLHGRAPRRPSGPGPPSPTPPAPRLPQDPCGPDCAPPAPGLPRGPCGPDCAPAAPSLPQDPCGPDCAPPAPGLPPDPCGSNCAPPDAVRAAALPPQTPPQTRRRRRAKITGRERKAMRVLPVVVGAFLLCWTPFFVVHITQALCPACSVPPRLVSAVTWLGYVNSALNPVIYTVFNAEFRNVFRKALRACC
# D(4) dopamine receptor = target: T2, D(4) dopamine receptor (Homo sapiens, UniProt P21917); assay: Inhibition of human dopamine D4 receptor
# T2 sequence (P21917 whole entry): T1 sequence (whole entry)
# Cytochrome P450 1A2 = target: T3, Cytochrome P450 1A2 (Homo sapiens, UniProt P05177); assay: Inhibition of human CYP1A2 by electrospray ionization; format: ADME
# T3 sequence (P05177 whole entry): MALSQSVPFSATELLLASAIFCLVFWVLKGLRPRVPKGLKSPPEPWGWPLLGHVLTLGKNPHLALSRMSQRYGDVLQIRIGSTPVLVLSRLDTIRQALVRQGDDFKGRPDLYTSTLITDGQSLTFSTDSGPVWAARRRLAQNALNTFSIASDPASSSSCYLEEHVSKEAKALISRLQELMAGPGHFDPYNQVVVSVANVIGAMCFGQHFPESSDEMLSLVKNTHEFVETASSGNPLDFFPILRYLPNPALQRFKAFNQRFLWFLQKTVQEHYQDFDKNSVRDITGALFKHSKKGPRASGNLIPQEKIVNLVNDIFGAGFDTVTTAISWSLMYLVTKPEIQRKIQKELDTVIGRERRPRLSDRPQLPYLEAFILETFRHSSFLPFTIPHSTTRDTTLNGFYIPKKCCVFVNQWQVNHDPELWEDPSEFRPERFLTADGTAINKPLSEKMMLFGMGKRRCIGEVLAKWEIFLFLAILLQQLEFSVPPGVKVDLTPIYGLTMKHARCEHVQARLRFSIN
# [2] = Fraction unbound in rat plasma; format: ADME, cell-free
# Cytochrome P450 2D6 = Cytochrome P450 2D6 (Homo sapiens, UniProt P10635); assay: Inhibition of human CYP2D6 by electrospray ionization; format: ADME
# Chain of Cytochrome P450 2D6 (P10635 whole entry): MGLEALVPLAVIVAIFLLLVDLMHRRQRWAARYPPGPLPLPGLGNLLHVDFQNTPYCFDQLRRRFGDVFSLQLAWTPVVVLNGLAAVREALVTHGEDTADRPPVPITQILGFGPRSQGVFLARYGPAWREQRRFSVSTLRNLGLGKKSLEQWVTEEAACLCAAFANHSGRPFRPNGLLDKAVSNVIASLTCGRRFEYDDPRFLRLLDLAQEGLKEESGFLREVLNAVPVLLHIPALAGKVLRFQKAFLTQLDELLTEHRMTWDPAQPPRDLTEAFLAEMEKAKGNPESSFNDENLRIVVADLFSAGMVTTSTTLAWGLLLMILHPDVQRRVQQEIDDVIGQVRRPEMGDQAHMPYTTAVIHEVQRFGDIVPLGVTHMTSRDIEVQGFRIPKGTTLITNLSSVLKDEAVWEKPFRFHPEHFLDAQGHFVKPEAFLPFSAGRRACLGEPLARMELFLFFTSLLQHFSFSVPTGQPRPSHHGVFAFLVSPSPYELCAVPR
# Rattus norvegicus [3] = assay: Reversal of cocaine-induced hyperlocomotion in Sprague-Dawley rat at 3 mg/kg, ip; format: functional, organism-based; set-up: dose 3 mg/kg
# [4] = Drug uptake in Sprague-Dawley rat plasma at 10 mg/kg, ip after 0.25 hrs; format: ADME, organism-based; set-up: dose 10 mg/kg, route intraperitoneal
# D(3) dopamine receptor = D(3) dopamine receptor (Homo sapiens, UniProt P35462); assay: Inhibition of human dopamine D3 receptor
# Chain of D(3) dopamine receptor (P35462 whole entry): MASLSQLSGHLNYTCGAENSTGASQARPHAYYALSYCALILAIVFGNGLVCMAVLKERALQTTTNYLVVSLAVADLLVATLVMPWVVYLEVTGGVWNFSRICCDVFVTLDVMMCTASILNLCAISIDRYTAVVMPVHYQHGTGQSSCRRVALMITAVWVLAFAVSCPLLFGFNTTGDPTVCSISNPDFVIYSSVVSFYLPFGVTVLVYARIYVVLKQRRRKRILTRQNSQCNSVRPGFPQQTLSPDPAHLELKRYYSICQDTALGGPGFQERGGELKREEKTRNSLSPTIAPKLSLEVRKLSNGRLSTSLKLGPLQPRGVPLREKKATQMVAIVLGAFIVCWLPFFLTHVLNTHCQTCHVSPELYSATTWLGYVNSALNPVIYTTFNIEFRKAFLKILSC
# [5] = Fraction unbound in human plasma; format: ADME, cell-free
# [6] = Ratio of drug level in Sprague-Dawley rat brain to plasma at 10 mg/kg, ip after 0.25 hrs; format: ADME, organism-based; set-up: dose 10 mg/kg, route intraperitoneal
# Rattus norvegicus [7] = assay: Reversal of cocaine-induced hyperlocomotion in Sprague-Dawley rat at 10 mg/kg, ip; format: functional, organism-based; set-up: dose 10 mg/kg
# [8] = Drug uptake in Sprague-Dawley rat brain at 10 mg/kg, ip after 0.25 hrs; format: ADME, organism-based; set-up: dose 10 mg/kg, route intraperitoneal
# Cytochrome P450 2C9 = Cytochrome P450 2C9 (Homo sapiens, UniProt P11712); assay: Inhibition of human CYP2C9 by electrospray ionization; format: ADME
# Chain of Cytochrome P450 2C9 (P11712 whole entry): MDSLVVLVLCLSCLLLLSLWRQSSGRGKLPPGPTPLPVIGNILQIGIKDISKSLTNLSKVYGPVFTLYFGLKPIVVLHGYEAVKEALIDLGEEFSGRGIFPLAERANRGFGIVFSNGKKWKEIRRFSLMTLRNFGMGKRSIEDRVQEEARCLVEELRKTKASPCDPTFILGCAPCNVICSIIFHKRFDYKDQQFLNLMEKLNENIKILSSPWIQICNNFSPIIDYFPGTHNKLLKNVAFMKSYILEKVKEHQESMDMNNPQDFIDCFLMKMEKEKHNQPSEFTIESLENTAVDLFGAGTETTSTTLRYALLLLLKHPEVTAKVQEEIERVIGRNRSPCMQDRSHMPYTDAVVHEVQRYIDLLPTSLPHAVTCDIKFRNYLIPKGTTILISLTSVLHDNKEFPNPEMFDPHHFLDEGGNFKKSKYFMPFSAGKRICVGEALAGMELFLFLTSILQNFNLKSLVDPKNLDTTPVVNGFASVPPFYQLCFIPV
# D(1A) dopamine receptor = D(1A) dopamine receptor (Homo sapiens, UniProt P21728); assay: Inhibition of human dopamine D1 receptor
# Chain of D(1A) dopamine receptor (P21728 whole entry): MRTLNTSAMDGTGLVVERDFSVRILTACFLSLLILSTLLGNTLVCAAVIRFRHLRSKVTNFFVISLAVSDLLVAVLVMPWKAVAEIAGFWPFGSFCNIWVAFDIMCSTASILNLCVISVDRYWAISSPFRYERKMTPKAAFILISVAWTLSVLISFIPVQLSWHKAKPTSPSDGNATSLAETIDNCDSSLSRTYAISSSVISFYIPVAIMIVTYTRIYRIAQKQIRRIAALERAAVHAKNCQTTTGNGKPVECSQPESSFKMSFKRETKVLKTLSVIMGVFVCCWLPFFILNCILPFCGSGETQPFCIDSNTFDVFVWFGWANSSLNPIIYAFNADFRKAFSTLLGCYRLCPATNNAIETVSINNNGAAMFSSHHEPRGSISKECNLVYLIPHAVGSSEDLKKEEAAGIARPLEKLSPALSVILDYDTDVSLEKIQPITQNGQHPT
# Cytochrome P450 3A4 = Cytochrome P450 3A4 (Homo sapiens, UniProt P08684); assay: Inhibition of human CYP3A4 by electrospray ionization; format: ADME
# Chain of Cytochrome P450 3A4 (P08684 whole entry): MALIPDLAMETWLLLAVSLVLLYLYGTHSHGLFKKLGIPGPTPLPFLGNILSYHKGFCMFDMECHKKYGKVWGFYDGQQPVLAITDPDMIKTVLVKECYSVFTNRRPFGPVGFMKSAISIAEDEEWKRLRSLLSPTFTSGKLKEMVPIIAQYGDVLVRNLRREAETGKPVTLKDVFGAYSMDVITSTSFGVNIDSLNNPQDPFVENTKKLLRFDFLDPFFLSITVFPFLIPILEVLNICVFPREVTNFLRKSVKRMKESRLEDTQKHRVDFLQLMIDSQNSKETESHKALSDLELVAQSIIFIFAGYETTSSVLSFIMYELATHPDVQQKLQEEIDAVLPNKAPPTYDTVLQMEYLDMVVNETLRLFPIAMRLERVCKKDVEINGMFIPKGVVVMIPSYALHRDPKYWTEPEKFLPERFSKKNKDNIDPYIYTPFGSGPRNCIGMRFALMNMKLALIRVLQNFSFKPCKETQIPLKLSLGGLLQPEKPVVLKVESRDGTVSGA
# D(2) dopamine receptor [9] = target: T4, D(2) dopamine receptor (Homo sapiens, UniProt P14416); assay: Inhibition of human dopamine D2 receptor
# T4 sequence (P14416 whole entry): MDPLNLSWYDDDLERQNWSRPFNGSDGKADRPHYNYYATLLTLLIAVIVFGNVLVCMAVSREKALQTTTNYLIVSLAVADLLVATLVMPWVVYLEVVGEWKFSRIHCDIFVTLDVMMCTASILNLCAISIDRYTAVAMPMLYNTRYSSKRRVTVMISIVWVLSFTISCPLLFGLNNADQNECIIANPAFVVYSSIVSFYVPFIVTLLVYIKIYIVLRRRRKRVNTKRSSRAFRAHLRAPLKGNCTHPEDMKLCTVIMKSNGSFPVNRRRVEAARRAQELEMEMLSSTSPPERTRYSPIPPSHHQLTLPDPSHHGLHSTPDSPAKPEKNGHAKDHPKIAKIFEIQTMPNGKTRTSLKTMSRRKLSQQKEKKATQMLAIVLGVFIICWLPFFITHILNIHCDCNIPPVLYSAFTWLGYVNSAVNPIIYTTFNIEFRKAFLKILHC
# [10] = target: Sodium-dependent dopamine transporter (Homo sapiens) (UniProt Q01959); assay: Binding affinity to dopamine transporter (unknown origin) at 10 uM by radioligand binding assay
# [11] = target: Sigma non-opioid intracellular receptor 1 (Homo sapiens) (UniProt Q99720); assay: Binding affinity to sigma 1 receptor (unknown origin) at 10 uM by radioligand binding assay
# Chain of Sigma non-opioid intracellular receptor 1 (Homo sapiens) (Q99720 whole entry): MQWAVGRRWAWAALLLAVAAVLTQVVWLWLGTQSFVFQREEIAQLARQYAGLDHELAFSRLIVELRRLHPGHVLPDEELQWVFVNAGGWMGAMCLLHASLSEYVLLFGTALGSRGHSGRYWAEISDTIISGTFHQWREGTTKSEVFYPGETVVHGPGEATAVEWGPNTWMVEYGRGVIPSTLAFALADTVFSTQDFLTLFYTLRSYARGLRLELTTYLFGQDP
# D(2) dopamine receptor [12] = target: T4, D(2) dopamine receptor; assay: Inhibition of human dopamine D2L receptor
# [13] = target: Sodium-dependent noradrenaline transporter (Homo sapiens) (UniProt P23975); assay: Binding affinity to norepinephrine transporter (unknown origin) at 10 uM by radioligand binding assay
# Chain of Sodium-dependent noradrenaline transporter (Homo sapiens) (P23975 whole entry): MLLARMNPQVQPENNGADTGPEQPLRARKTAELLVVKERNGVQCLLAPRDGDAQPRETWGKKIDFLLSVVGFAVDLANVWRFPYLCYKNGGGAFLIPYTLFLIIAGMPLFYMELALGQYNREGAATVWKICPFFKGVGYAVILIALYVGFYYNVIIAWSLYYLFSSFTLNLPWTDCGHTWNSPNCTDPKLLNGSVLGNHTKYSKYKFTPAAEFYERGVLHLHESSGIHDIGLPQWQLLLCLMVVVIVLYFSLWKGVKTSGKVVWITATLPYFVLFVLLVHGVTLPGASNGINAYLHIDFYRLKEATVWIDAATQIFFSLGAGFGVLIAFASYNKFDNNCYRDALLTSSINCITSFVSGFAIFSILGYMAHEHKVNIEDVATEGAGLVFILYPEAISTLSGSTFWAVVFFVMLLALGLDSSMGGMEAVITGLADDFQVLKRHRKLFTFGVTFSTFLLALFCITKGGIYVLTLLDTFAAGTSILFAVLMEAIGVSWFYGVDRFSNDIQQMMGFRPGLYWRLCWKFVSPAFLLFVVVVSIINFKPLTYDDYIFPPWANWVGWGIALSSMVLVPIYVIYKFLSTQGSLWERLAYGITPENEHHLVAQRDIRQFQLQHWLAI
# [14] = target: T5, Alpha-1A adrenergic receptor (Homo sapiens) (UniProt P35348); assay: Binding affinity to adrenergic alpha1A receptor (unknown origin) at 10 uM by radioligand binding assay
# T5 sequence (whole entry): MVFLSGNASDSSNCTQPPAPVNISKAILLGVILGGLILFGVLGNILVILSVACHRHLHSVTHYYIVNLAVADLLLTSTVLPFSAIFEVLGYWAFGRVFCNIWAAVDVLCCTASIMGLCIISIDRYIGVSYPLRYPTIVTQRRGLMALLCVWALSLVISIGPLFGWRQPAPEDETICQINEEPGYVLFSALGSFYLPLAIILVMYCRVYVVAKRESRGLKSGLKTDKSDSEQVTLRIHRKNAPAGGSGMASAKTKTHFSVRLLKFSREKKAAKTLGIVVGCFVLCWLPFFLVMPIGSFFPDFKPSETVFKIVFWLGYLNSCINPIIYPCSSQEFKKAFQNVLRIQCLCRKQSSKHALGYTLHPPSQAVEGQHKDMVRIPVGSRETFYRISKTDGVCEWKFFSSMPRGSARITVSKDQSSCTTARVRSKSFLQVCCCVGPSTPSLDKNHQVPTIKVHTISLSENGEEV
# D(2) dopamine receptor [15] = target: T4, D(2) dopamine receptor; assay: Inhibition of human dopamine D2S receptor
# [16] = target: Histamine H1 receptor (Homo sapiens) (UniProt P35367); assay: Binding affinity to histamine H1 receptor (unknown origin) at 10 uM by radioligand binding assay
# Chain of Histamine H1 receptor (Homo sapiens) (P35367 whole entry): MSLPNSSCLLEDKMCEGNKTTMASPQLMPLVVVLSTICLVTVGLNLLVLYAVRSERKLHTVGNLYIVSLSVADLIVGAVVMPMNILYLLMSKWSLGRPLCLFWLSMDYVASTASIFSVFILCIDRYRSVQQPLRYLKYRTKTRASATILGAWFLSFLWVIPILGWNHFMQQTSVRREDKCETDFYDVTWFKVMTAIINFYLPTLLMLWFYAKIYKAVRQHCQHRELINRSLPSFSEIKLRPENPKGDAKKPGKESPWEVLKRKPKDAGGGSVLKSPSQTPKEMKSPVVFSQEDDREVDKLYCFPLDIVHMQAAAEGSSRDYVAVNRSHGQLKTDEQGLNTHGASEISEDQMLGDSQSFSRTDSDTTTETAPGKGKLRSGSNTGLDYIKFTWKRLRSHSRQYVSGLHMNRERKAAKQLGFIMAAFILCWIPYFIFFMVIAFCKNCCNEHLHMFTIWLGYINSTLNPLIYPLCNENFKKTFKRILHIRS
# [17] = target: D(1B) dopamine receptor (Homo sapiens) (UniProt P21918); assay: Inhibition of human dopamine D5 receptor
# Chain of D(1B) dopamine receptor (Homo sapiens) (P21918 whole entry): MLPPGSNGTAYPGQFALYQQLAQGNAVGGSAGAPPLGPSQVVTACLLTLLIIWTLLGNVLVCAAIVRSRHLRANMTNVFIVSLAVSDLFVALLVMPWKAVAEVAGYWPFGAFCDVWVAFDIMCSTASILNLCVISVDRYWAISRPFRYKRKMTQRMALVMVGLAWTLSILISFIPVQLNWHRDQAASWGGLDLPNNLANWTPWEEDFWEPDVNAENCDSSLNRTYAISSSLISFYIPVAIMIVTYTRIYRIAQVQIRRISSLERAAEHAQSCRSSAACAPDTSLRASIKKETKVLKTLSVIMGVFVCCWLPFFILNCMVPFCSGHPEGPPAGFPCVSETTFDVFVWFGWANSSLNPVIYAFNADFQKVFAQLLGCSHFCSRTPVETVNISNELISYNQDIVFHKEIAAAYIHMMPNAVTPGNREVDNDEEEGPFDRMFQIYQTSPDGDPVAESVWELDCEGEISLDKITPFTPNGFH
structure (smiles),measurement,setting,value
FC(F)(F)Oc1cccc(CN2CCOC(CCc3ccccc3)C2)c1 (racemic),inhibition,[1],88%
same,IC50,D(4) dopamine receptor,0.39 µM
same,Ki,D(4) dopamine receptor,0.11 µM
c1ccc(CC[C@@H]2CN(Cc3nc4ccccc4[nH]3)CCO2)cc1,IC50,Cytochrome P450 1A2,13.1 µM
same,fraction unbound,[2],0.133
same,IC50,Cytochrome P450 2D6,12 µM
same,Activity,Rattus norvegicus [3],inactive
same,concentration at 0.25 h,[4],1940 nM
same,IC50,D(3) dopamine receptor,46.2 µM
same,Ki,D(3) dopamine receptor,15.7 µM
same,fraction unbound,[5],0.012
same,Kp at 0.25 h,[6],1.8
same,Activity,Rattus norvegicus [7],inactive
same,concentration at 0.25 h,[8],3560 nM
same,IC50,Cytochrome P450 2C9,4.8 µM
same,IC50,D(1A) dopamine receptor,> 100 µM
same,Ki,D(1A) dopamine receptor,> 100 µM
same,IC50,Cytochrome P450 3A4,15.6 µM
same,IC50,D(4) dopamine receptor,0.18 µM
same,Ki,D(4) dopamine receptor,0.07 µM
same,IC50,D(2) dopamine receptor [9],> 100 µM
same,Ki,D(2) dopamine receptor [9],> 100 µM
Clc1ccc(CN2CCO[C@H](CCc3ccccc3)C2)cc1,inhibition,[1],96%
same,IC50,Cytochrome P450 1A2,> 30 µM
same,Activity,[10],72%
same,fraction unbound,[2],0.039
same,IC50,Cytochrome P450 2D6,18 µM
same,concentration at 0.25 h,[4],482 nM
same,INH,D(3) dopamine receptor,> 20 µM
same,Activity,[11],99%
same,fraction unbound,[5],0.061
same,Kp at 0.25 h,[6],2
same,INH,D(2) dopamine receptor [12],> 20 µM
same,Activity,[13],68%
same,Activity,Rattus norvegicus [7],Active
same,concentration at 0.25 h,[8],987 nM
same,Activity,[14],77%
same,IC50,Cytochrome P450 2C9,> 30 µM
same,INH,D(2) dopamine receptor [15],> 20 µM
same,Activity,[16],93%
same,INH,[17],> 20 µM
same,INH,D(1A) dopamine receptor,> 20 µM
same,IC50,Cytochrome P450 3A4,> 30 µM
same,IC50,D(4) dopamine receptor,0.13 µM
same,Ki,D(4) dopamine receptor,0.036 µM
Cn1c(N2CCOC(CCc3ccccc3)C2)nc2ccccc21 (racemic),inhibition,[1],17%
FC(F)(F)Oc1ccc(CN2CCOC(CCc3ccccc3)C2)cc1 (racemic),inhibition,[1],94%
same,IC50,D(3) dopamine receptor,8.17 µM
same,Ki,D(3) dopamine receptor,2.77 µM
same,Ki,D(2) dopamine receptor [12],5.5 µM
same,INH,D(2) dopamine receptor [15],> 20 µM
same,INH,[17],> 20 µM
same,INH,D(1A) dopamine receptor,> 20 µM
same,IC50,D(4) dopamine receptor,0.16 µM
same,Ki,D(4) dopamine receptor,0.043 µM
Cc1ccc(C(=O)N2CCOC(CCc3ccccc3)C2)cc1 (racemic),inhibition,[1],17%
c1ccc(CC[C@H]2CN(Cc3nc4ccccc4[nH]3)CCO2)cc1,IC50,D(3) dopamine receptor,76.4 µM
same,Ki,D(3) dopamine receptor,25.9 µM
same,IC50,D(1A) dopamine receptor,> 100 µM
same,Ki,D(1A) dopamine receptor,> 100 µM
same,IC50,D(4) dopamine receptor,> 100 µM
same,Ki,D(4) dopamine receptor,> 100 µM
same,IC50,D(2) dopamine receptor [9],> 100 µM
same,Ki,D(2) dopamine receptor [9],> 100 µM
Fc1cccc(F)c1CN1CCOC(CCc2ccccc2)C1 (racemic),inhibition,[1],51%
same,IC50,D(4) dopamine receptor,3.88 µM
same,Ki,D(4) dopamine receptor,1.07 µM
O=C(Nc1ccc(F)cc1)N1CCOC(CCc2ccccc2)C1 (racemic),inhibition,[1],5%
Cc1ccccc1CN1CCOC(CCc2ccccc2)C1 (racemic),inhibition,[1],54%
same,IC50,D(4) dopamine receptor,3.68 µM
same,Ki,D(4) dopamine receptor,1.02 µM
O=S(=O)(c1ccccc1)N1CCOC(CCc2ccccc2)C1 (racemic),inhibition,[1],2%
c1ccc(CCC2CN(Cc3cccnc3)CCO2)cc1 (racemic),inhibition,[1],35%
c1ccc(CCC2CN(Cc3nc4ccccc4[nH]3)CCO2)cc1 (racemic),IC50,D(3) dopamine receptor,31.8 µM
same,Ki,D(3) dopamine receptor,10.8 µM
same,IC50,D(1A) dopamine receptor,> 100 µM
same,Ki,D(1A) dopamine receptor,> 100 µM
same,IC50,D(4) dopamine receptor,0.36 µM
same,Ki,D(4) dopamine receptor,0.14 µM
same,IC50,D(2) dopamine receptor [9],> 100 µM
same,Ki,D(2) dopamine receptor [9],> 100 µM
c1ccc(CCC2CN(c3ccccc3)CCO2)cc1 (racemic),inhibition,[1],5%
c1ccc(CCC2CN(Cc3ccncc3)CCO2)cc1 (racemic),inhibition,[1],13%
Fc1ccc(CN2CCOC(CCc3ccccc3)C2)cc1 (racemic),inhibition,[1],88%
same,IC50,D(4) dopamine receptor,1.14 µM
same,Ki,D(4) dopamine receptor,0.32 µM
Clc1ccc(CN2CCOC(CCc3ccccc3)C2)cc1 (racemic),inhibition,[1],97%
same,INH,D(3) dopamine receptor,> 20 µM
same,INH,D(2) dopamine receptor [12],> 20 µM
same,INH,D(2) dopamine receptor [15],> 20 µM
same,INH,[17],> 20 µM
same,INH,D(1A) dopamine receptor,> 20 µM
same,IC50,D(4) dopamine receptor,0.29 µM
same,Ki,D(4) dopamine receptor,0.081 µM
c1ccc(CCC2CN(Cc3ccccn3)CCO2)cc1 (racemic),inhibition,[1],23%
c1ccc(CCC2CN(Cc3ccccc3)CCO2)cc1 (racemic),inhibition,[1],74%
same,IC50,D(4) dopamine receptor,1.48 µM
same,Ki,D(4) dopamine receptor,0.41 µM
FC(F)(F)Oc1ccc(CN2CCO[C@H](CCc3ccccc3)C2)cc1,inhibition,[1],96%
same,IC50,D(3) dopamine receptor,8.17 µM
same,Ki,D(3) dopamine receptor,2.77 µM
same,Ki,D(2) dopamine receptor [12],5.5 µM
same,INH,D(2) dopamine receptor [15],> 20 µM
same,INH,[17],> 20 µM
same,INH,D(1A) dopamine receptor,> 20 µM
same,IC50,D(4) dopamine receptor,0.23 µM
same,Ki,D(4) dopamine receptor,0.065 µM
COc1ccc(CN2CCOC(CCc3ccccc3)C2)cc1 (racemic),inhibition,[1],98%
same,IC50,D(3) dopamine receptor,8.17 µM
same,Ki,D(3) dopamine receptor,2.77 µM
same,IC50,D(2) dopamine receptor [12],16.5 µM
same,INH,D(2) dopamine receptor [15],> 20 µM
same,INH,[17],> 20 µM
same,INH,D(1A) dopamine receptor,> 20 µM
same,IC50,D(4) dopamine receptor,0.17 µM
same,Ki,D(4) dopamine receptor,0.046 µM
